Measurements: DBAASP
≈ marks a conversion by molar mass, not a printed value. Each block holds one compound with its values, some of them ahead of it.

Key:
Experiment in all cases: ≥ marks a high value that may be exact or a test limit, other limits are often not marked, values filed in µg/mL are converted to µM
[1] = test system: Acinetobacter baumannii LMG 01041
[2] = test system: Escherichia coli LMG 15862
[3] = test system: Klebsiella aerogenes LMG 02094
[4] = test system: Klebsiella pneumoniae LMG 20218
[5] = test system: Pseudomonas aeruginosa LMG 6395
Escherichia coli BL21 = test system: Escherichia coli BL21
[6] = test system: Pseudomonas aeruginosa PAO1
[7] = test system: Staphylococcus aureus USA 300
[8] = test system: Streptococcus pyogenes M1T1 5448
Phytophthora nicotianae = test system: Phytophthora nicotianae
Acinetobacter baumannii = test system: Acinetobacter baumannii
[9] = test system: Escherichia coli ATCC 25922
[10] = test system: Klebsiella pneumoniae ATCC 700603
Klebsiella pneumoniae = test system: Klebsiella pneumoniae
[11] = test system: Pseudomonas aeruginosa ATCC 9027
[12] = test system: Staphylococcus aureus ATCC 29737
Candida albicans = test system: Candida albicans
[13] = test system: Pseudomonas aeruginosa ATCC 27853
[14] = test system: Staphylococcus aureus ATCC 49476
Staphylococcus aureus MR = test system: Staphylococcus aureus MR

Structure (SMILES): CC[C@H](C)[C@H](NC(=O)[C@H](C)N)C(=O)N[C@H](C(=O)N[C@@H](CCC(N)=O)C(=O)N[C@@H](CCCN=C(N)N)C(=O)N[C@H](C(=O)N[C@@H](CCCCN)C(=O)N[C@@H](CCCCN)C(=O)N[C@@H](Cc1c[nH]c2ccccc12)C(=O)N[C@@H](CC(C)C)C(=O)N[C@@H](CCCN=C(N)N)C(N)=O)[C@@H](C)CC)C(C)C [AIVQRIKKWLR]
MIC [1]: ≥ 128 µM | MIC [2]: 12 µM (≈ 16.9 µg/mL) | MIC [3]: ≥ 128 µM | MIC [4]: 24 µM (≈ 33.8 µg/mL) | MIC [5]: 16 µM (≈ 22.6 µg/mL)

Structure (SMILES): CC[C@H](C)[C@H](NC(=O)CN)C(=O)N[C@@H](Cc1ccccc1)C(=O)N[C@@H](CO)C(=O)N[C@@H](CCCCN)C(=O)N[C@@H](CC(C)C)C(=O)N[C@@H](C)C(=O)NCC(=O)N[C@@H](CCCCN)C(=O)N[C@@H](CCCCN)C(=O)N[C@@H](CC(C)C)C(=O)N[C@@H](CCCCN)C(=O)N[C@@H](CC(N)=O)C(=O)N[C@@H](CC(C)C)C(=O)N[C@@H](CC(C)C)C(=O)N[C@H](C(=O)N[C@@H](CO)C(=O)NCC(=O)N[C@@H](CC(C)C)C(N)=O)[C@@H](C)CC [GIFSKLAGKKLKNLLISGL]
MIC (Phytophthora nicotianae): 12 µM (≈ 24 µg/mL)

Structure (SMILES): CC(C)C[C@H](NC(=O)[C@H](Cc1c[nH]c2ccccc12)NC(=O)[C@@H](NC(=O)[C@H](CC(C)C)NC(=O)[C@@H]1CCCN1C(=O)[C@@H](N)Cc1ccccc1)[C@@H](C)O)C(=O)N[C@@H](CCCCN)C(=O)N[C@@H](Cc1c[nH]c2ccccc12)C(=O)N[C@@H](Cc1c[nH]c2ccccc12)C(=O)N[C@@H](CCCCN)C(=O)N[C@@H](Cc1c[nH]c2ccccc12)C(=O)N[C@@H](CCCCN)C(=O)N[C@@H](CCCCN)C(N)=O [FPLTWLKWWKWKK]
MIC (Acinetobacter baumannii): 16.9 µM (≈ 31.2 µg/mL) | MIC [9]: 16.9 µM (≈ 31.2 µg/mL) | MIC [10]: 8.45 µM (≈ 15.6 µg/mL) | MIC (Klebsiella pneumoniae): 8.66 µM (≈ 16 µg/mL) | MIC [11]: 33.8 µM (≈ 62.5 µg/mL) | MIC [12]: 8.45 µM (≈ 15.6 µg/mL)

Other lines, results leading:

MIC (Escherichia coli BL21): 0.5 µM (≈ 1.53 µg/mL) | MIC [6]: 16 µM (≈ 48.9 µg/mL) | MIC [7]: 16 µM (≈ 48.9 µg/mL) | MIC [8]: 1 µM (≈ 3.05 µg/mL)
Structure (SMILES): CC[C@H](C)[C@H](NC(=O)[C@H](CCCN=C(N)N)NC(=O)[C@H](CCCCN)NC(=O)[C@@H](NC(=O)[C@H](CCCCN)NC(=O)[C@H](CCCN=C(N)N)NC(=O)[C@@H](NC(=O)[C@H](Cc1ccc(O)cc1)NC(=O)[C@H](CCCN=C(N)N)NC(=O)[C@H](CCCN=C(N)N)NC(=O)[C@H](CC(C)C)NC(=O)[C@H](CCC(=O)O)NC(=O)[C@H](CCCCN)NC(=O)[C@H](C)NC(=O)[C@@H](NC(=O)[C@H](CCCN=C(N)N)NC(=O)[C@H](CC(N)=O)NC(=O)[C@@H](NC(=O)CNC(=O)[C@H](C)N)[C@@H](C)O)[C@@H](C)CC)[C@@H](C)CC)C(C)C)C(=O)N[C@@H](C)C(=O)N[C@@H](CCCN=C(N)N)C(=O)N[C@@H](CCCCN)C(=O)N[C@@H](C)C(=O)N[C@@H](Cc1c[nH]c2ccccc12)C(=O)O [AGTNRIAKELRRYIRKVKRIARKAW]

MIC (Candida albicans): 42.7 µM (≈ 128 µg/mL) | MIC [13]: > 171 µM | MIC [14]: ≥ 171 µM | MIC (Staphylococcus aureus MR): ≥ 171 µM
Structure (SMILES): CC[C@H](C)[C@H](NC(=O)[C@H](CC(C)C)NC(=O)[C@H](CCCN=C(N)N)NC(=O)[C@H](Cc1cnc[nH]1)NC(=O)[C@H](CCC(=O)O)NC(=O)[C@H](C)NC(=O)[C@H](CCCCN)NC(=O)CNC(=O)[C@H](C)NC(=O)[C@H](CO)NC(=O)[C@H](Cc1ccccc1)NC(=O)[C@H](CC(C)C)NC(=O)CNC(=O)CNC(=O)[C@@H](NC(=O)[C@@H](NC(=O)[C@H](Cc1cnc[nH]1)NC(=O)[C@H](Cc1cnc[nH]1)NC(=O)[C@@H](NC(=O)[C@@H](N)Cc1ccccc1)[C@@H](C)CC)[C@@H](C)CC)[C@@H](C)CC)C(=O)N[C@@H](CCCN=C(N)N)C(=O)N[C@@H](CCCN=C(N)N)C(=O)N[C@@H](CCCN=C(N)N)C(=O)N[C@@H](CCCN=C(N)N)C(=O)N[C@@H](CCCN=C(N)N)C(=O)O [FIHHIIGGLFSAGKAEHRLIRRRRR]
